TGI and GI50 data for 15 compounds are collected here from PubChem BioAssay (NCI).

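Interpolation was linear, between the two tested concentrations surrounding the appropriate level; five concentrations were tested over 48 hours in 96-well plates. GI50 = concentration required for 50% inhibition of growth. TGI: concentration producing complete growth inhibition.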

Some test systems named below: SNB-19 CNS; SK-MEL-5 melanoma; DLD-1 colon; SF-539 CNS; HOP-62 NSCLC; ACHN renal; SK-OV-3 ovarian; U251 CNS; LXFL 529 NSCLC; UO-31 renal; HCT-15 colon; MALME-3M melanoma; COLO 205 colon; DMS 273 small cell lung; UACC-257 melanoma; HOP-92 NSCLC.
What all share (experiment): NCI-60 cell line screen, 48 h

Take `CCC(CC)NC1=C(NC(C)=O)C(=O)c2ccccc2C1=O`: the TGI in the test with SNB-19 CNS, with SK-MEL-5 melanoma, in the test with DLD-1 colon, in the test on SF-539 CNS, with HOP-62 NSCLC and with ACHN renal was greater than 50 µM each time. For the same compound, the TGI in the test on SK-OV-3 ovarian, in the test on U251 CNS, in the test with LXFL 529 NSCLC, in the test on UO-31 renal, in the test with HCT-15 colon and with MALME-3M melanoma was greater than 50 µM each time. Also, the TGI in the test on COLO 205 colon, in the test on DMS 273 small cell lung, in the test on UACC-257 melanoma and with HOP-92 NSCLC was greater than 50 µM in each case.
Turning to `O=S(Cc1ccccc1)c1nc2ccccc2nc1-c1cccs1` (stereo unspecified), the TGI in the test on SNB-19 CNS amounted to 39.4 µM; in the test with SK-MEL-5 melanoma, 23.7 µM; in the test on DLD-1 colon, 24.6 µM; in the test on SF-539 CNS, 30 µM; in the test on HOP-62 NSCLC, 37.4 µM; in the test on ACHN renal it was 26.9 µM. For the same compound, the TGI with SK-OV-3 ovarian worked out at 85.4 µM; in the test on U251 CNS, 33.5 µM; with LXFL 529 NSCLC, 12.8 µM; in the test on UO-31 renal, 41 µM; with HCT-15 colon it was 25.5 µM; in the test with MALME-3M melanoma, 19.4 µM. The TGI was found to be 42.7 µM in the test with COLO 205 colon, 22.7 µM with DMS 273 small cell lung, 26.5 µM in the test with UACC-257 melanoma and 29.8 µM with HOP-92 NSCLC.
For the compound `N#C[S-].[La+3].c1cnc2c(c1)ccc1cccnc12.c1cnc2c(c1)ccc1cccnc12.c1cnc2c(c1)ccc1cccnc12`, the TGI with SNB-19 CNS was 20.9 µM; in the test with SK-MEL-5 melanoma, 12.7 µM; with SF-539 CNS, 14.1 µM; in the test on ACHN renal, 12.9 µM; with SK-OV-3 ovarian it was 14.1 µM; with U251 CNS, 11.9 µM. Moreover, the TGI in the test on LXFL 529 NSCLC was 15.3 µM; in the test on UO-31 renal, 10.5 µM; in the test with MALME-3M melanoma, 7.06 µM; with COLO 205 colon, 16.1 µM; in the test with UACC-257 melanoma it was 20.2 µM; with HOP-92 NSCLC it was 18 µM. In the test on LXFL 529 NSCLC, the GI50 is 1.83 µM.
For the compound `CN(C)/C=C/C(=CC=[N+](C)C)/C=C/N(C)C`, the TGI with SNB-19 CNS, in the test with SK-MEL-5 melanoma, with DLD-1 colon, in the test with SF-539 CNS, in the test with HOP-62 NSCLC and in the test with ACHN renal was greater than 100 µM throughout. For the same compound, the TGI with SK-OV-3 ovarian, in the test on U251 CNS, in the test on LXFL 529 NSCLC, in the test on UO-31 renal, in the test on MALME-3M melanoma and with DMS 273 small cell lung was greater than 100 µM each time. Also, the TGI in the test with UACC-257 melanoma and in the test with HOP-92 NSCLC was greater than 100 µM each time.
In the case of `CC1(C)OCN(c2ccc(N3CCOCC3)cc2)Cn2c1nc1ccccc12`, the TGI in the test with SNB-19 CNS, in the test on DLD-1 colon, in the test with SF-539 CNS, in the test with HOP-62 NSCLC, with ACHN renal and in the test with SK-OV-3 ovarian was greater than 100 µM each time. Besides, the TGI in the test on U251 CNS, in the test with LXFL 529 NSCLC, in the test on UO-31 renal, in the test on HCT-15 colon, in the test on MALME-3M melanoma and in the test on COLO 205 colon was greater than 100 µM in each case. Also, the TGI with DMS 273 small cell lung, in the test on UACC-257 melanoma and with HOP-92 NSCLC was greater than 100 µM each time.
Take `COc1cc(C=O)c(-c2c(C=O)ccc3c2OCO3)c(OC)c1OC`: the TGI in the test on SNB-19 CNS, in the test on SK-MEL-5 melanoma, in the test on DLD-1 colon, in the test with SF-539 CNS, with HOP-62 NSCLC and with ACHN renal was greater than 100 µM in each case. In addition, the TGI in the test on SK-OV-3 ovarian, in the test with U251 CNS, in the test on LXFL 529 NSCLC, with UO-31 renal, with HCT-15 colon and in the test on MALME-3M melanoma was greater than 100 µM throughout. Further, the TGI in the test with COLO 205 colon, with DMS 273 small cell lung and with UACC-257 melanoma was greater than 100 µM throughout.
With `OC(CNc1ccccn1)c1ccccc1` (stereo unspecified), the TGI in the test with SNB-19 CNS, in the test with SK-MEL-5 melanoma, in the test on SF-539 CNS, with HOP-62 NSCLC, with ACHN renal and with SK-OV-3 ovarian was greater than 100 µM each time. The TGI in the test with U251 CNS, with UO-31 renal, with HCT-15 colon, with MALME-3M melanoma, with COLO 205 colon and in the test on UACC-257 melanoma was greater than 100 µM in each case. In the test on HOP-92 NSCLC, this compound gave a TGI greater than 100 µM.
With `Cc1ccc(C(=O)N/N=C(\N=Nc2cccc([N+](=O)[O-])c2)c2ccc(N(CCC#N)CCC#N)cc2C)cc1`, the TGI with SNB-19 CNS was greater than 100 µM; with SK-MEL-5 melanoma, 28.6 µM; in the test on SF-539 CNS it was 58.7 µM; in the test on HOP-62 NSCLC it was 79.7 µM; with ACHN renal, greater than 100 µM; in the test with SK-OV-3 ovarian it was greater than 85.2 µM. Moreover, the TGI was greater than 100 µM in the test on U251 CNS; greater than 100 µM in the test on UO-31 renal; greater than 100 µM in the test with HCT-15 colon; 18.4 µM in the test on MALME-3M melanoma; 20.9 µM in the test on COLO 205 colon; 52.7 µM in the test with UACC-257 melanoma. The same compound had a TGI in the test on HOP-92 NSCLC greater than 100 µM.
In the case of `COc1ccc(CC2COc3cc(OC)cc(OC)c3C2=O)cc1` (stereo unspecified), the TGI in the test on SNB-19 CNS was greater than 100 µM; with SK-MEL-5 melanoma, 68 µM; in the test with SF-539 CNS, 37.3 µM; in the test on HOP-62 NSCLC it was 97.1 µM; in the test on ACHN renal, greater than 100 µM; with SK-OV-3 ovarian, 56.6 µM. Besides, the TGI in the test on U251 CNS is greater than 100 µM; in the test with UO-31 renal, greater than 100 µM; in the test with HCT-15 colon, greater than 100 µM; in the test on MALME-3M melanoma it was 75.3 µM; in the test on COLO 205 colon, 31.1 µM; in the test on UACC-257 melanoma it was greater than 100 µM. Besides, the TGI in the test with HOP-92 NSCLC is greater than 100 µM.
In the case of `COC(=O)[C@@H]1C=C[C@H](OC2OC(COC(C)=O)C(OC(C)=O)C(OC(C)=O)C2OC(C)=O)n2c(=O)n(-c3ccccc3)c(=O)n21` (stereo partly specified), the TGI in the test with SNB-19 CNS was 25.8 µM; in the test on SK-MEL-5 melanoma it was 7 µM; in the test with SF-539 CNS, 8.21 µM; with HOP-62 NSCLC, 28.1 µM; with ACHN renal, 3.17 µM; with SK-OV-3 ovarian it was 29.4 µM. The TGI worked out at 8.33 µM with U251 CNS; 5.25 µM with UO-31 renal; 3.85 µM in the test with HCT-15 colon; 4.07 µM with MALME-3M melanoma; 3.38 µM in the test on COLO 205 colon; 5.07 µM with UACC-257 melanoma. The compound also registered a TGI with HOP-92 NSCLC of 3.59 µM.
For the compound `C=CCn1c(N)c(C#N)c(C#N)c1CCC`, the TGI in the test on SNB-19 CNS, in the test on SK-MEL-5 melanoma, in the test on SF-539 CNS, in the test with HOP-62 NSCLC, in the test with ACHN renal and in the test on SK-OV-3 ovarian was greater than 100 µM each time. Also, the TGI in the test with U251 CNS, in the test on UO-31 renal, in the test on HCT-15 colon, with MALME-3M melanoma, with COLO 205 colon and in the test with UACC-257 melanoma was greater than 100 µM each time. For the same compound, in the test with HOP-92 NSCLC, the TGI was greater than 100 µM.
With `CCOC(=O)c1ccc(N=C/C=C(\Nc2ccc(C(=O)OCC)cc2)C23CC4CC(CC(C4)C2)C3)cc1`, the TGI with SNB-19 CNS, in the test with SK-MEL-5 melanoma, in the test with SF-539 CNS, in the test with HOP-62 NSCLC, in the test on ACHN renal and in the test with SK-OV-3 ovarian was greater than 100 µM in each case. Moreover, the TGI with U251 CNS, with UO-31 renal, in the test with HCT-15 colon, in the test on MALME-3M melanoma, in the test with COLO 205 colon and in the test with UACC-257 melanoma was greater than 100 µM throughout. Besides, in the test with HOP-92 NSCLC, the TGI is greater than 100 µM.
Turning to `COc1ccc2c(c1)CN1C(=N2)CSC1c1cccc(Br)c1` (stereo unspecified), the TGI in the test with SNB-19 CNS is greater than 100 µM; in the test with SK-MEL-5 melanoma, 83.7 µM; in the test with SF-539 CNS, greater than 100 µM; in the test with HOP-62 NSCLC it was greater than 100 µM; in the test with ACHN renal it was greater than 100 µM; in the test on SK-OV-3 ovarian, greater than 100 µM. The TGI in the test on U251 CNS, in the test with UO-31 renal, in the test on HCT-15 colon, in the test on MALME-3M melanoma, with COLO 205 colon and in the test with UACC-257 melanoma was greater than 100 µM each time. The compound also displayed a TGI in the test on HOP-92 NSCLC greater than 100 µM.
For `COC(=O)C1=C(OC(=O)/C(=C/c2ccccc2)c2ccc(Cl)cc2Cl)C(C(=O)OC)[C@@]2(O)[C@@H](C(=O)OC)[C@H](C)C[C@@H]1[C@@H]2C(=O)OC` (stereo partly specified), the TGI in the test on SNB-19 CNS, in the test with SK-MEL-5 melanoma, with SF-539 CNS, in the test with HOP-62 NSCLC, in the test on ACHN renal and in the test on SK-OV-3 ovarian was greater than 100 µM each time. Also, the TGI in the test with U251 CNS, with UO-31 renal, in the test with HCT-15 colon, in the test on MALME-3M melanoma, in the test with COLO 205 colon and with UACC-257 melanoma was greater than 100 µM each time. For the same compound, the TGI in the test with HOP-92 NSCLC was greater than 100 µM.
Turning to `C/C(=N\NS(=O)(=O)c1ccc(C)cc1)c1ccccn1`, the TGI is greater than 100 µM with SNB-19 CNS; greater than 100 µM in the test on SK-MEL-5 melanoma; greater than 100 µM with SF-539 CNS; greater than 100 µM in the test with HOP-62 NSCLC; 83.3 µM with ACHN renal; greater than 100 µM with SK-OV-3 ovarian. The TGI is greater than 100 µM with U251 CNS; greater than 100 µM in the test on UO-31 renal; greater than 100 µM in the test with HCT-15 colon; greater than 100 µM in the test with MALME-3M melanoma; 93.5 µM in the test on COLO 205 colon; greater than 100 µM in the test on UACC-257 melanoma. In the test with HOP-92 NSCLC, this compound registered a TGI greater than 100 µM.
